Measurements: ChEMBL document CHEMBL1201862, “PubChem BioAssay data set” (2004)
Active and inactive are the calls of the source.

How the values were obtained:
Wee1-like protein kinase = Wee1-like protein kinase (Homo sapiens, UniProt P30291); experiment: Navigating the Kinome. Panel member name: WEE1; type: functional
[1] = target: ALK tyrosine kinase receptor (Homo sapiens, UniProt Q9UM73); type: functional;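 also: ALK tested as one member of a kinase panel screen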
[2] = A High Throughput Confirmatory Assay used to Identify Novel Compounds that Inhibit Mycobacterium Tuberculosis in the absence of Glycerol using Purified and Synthesized Compounds (3).; type: functional
Nonstructural protein 1 = Nonstructural protein 1 (Influenza A virus, UniProt Q194T2); type: functional, Influenza A virus (A/California/07/2009(H1N1))
Hexokinase HKDC1 = target: T1, Hexokinase HKDC1 (Homo sapiens, UniProt Q2TB90); experiment: HKDC1 hexokinase activators, dose response, biochemical, W721R variant (AID 504730); type: functional
T1 sequence (Q2TB90 whole entry): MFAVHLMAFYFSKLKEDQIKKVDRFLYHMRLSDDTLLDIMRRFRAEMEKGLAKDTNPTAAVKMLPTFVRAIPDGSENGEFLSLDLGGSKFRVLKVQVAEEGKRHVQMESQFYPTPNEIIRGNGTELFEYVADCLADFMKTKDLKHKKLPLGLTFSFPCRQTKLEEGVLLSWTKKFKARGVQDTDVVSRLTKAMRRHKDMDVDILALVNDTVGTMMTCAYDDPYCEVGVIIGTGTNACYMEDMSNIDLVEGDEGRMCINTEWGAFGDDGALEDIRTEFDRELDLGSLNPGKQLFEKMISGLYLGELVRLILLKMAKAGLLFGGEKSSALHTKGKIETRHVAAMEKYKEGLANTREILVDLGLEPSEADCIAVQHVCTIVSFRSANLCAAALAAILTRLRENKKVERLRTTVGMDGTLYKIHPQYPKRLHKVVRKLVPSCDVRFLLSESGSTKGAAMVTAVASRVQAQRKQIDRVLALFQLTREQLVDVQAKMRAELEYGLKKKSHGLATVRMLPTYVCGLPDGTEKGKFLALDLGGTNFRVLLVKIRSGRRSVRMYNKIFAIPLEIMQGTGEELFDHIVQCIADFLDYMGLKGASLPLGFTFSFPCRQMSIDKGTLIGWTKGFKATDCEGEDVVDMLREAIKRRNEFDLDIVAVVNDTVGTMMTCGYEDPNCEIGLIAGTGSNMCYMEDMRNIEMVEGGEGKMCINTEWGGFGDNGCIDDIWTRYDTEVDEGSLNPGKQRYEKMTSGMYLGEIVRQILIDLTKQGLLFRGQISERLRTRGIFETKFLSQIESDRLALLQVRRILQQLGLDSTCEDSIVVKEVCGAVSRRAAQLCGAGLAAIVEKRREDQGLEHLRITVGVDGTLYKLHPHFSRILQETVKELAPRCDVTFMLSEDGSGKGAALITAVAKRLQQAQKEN

Hexokinase-1 = Hexokinase-1 (Homo sapiens, UniProt P19367); experiment: hexokinase 1 activators, dose response, selectivity assay for HKDC1 activator project, biochemical (AID 504762); type: functional
Hexokinase-1, sequence (P19367 whole entry): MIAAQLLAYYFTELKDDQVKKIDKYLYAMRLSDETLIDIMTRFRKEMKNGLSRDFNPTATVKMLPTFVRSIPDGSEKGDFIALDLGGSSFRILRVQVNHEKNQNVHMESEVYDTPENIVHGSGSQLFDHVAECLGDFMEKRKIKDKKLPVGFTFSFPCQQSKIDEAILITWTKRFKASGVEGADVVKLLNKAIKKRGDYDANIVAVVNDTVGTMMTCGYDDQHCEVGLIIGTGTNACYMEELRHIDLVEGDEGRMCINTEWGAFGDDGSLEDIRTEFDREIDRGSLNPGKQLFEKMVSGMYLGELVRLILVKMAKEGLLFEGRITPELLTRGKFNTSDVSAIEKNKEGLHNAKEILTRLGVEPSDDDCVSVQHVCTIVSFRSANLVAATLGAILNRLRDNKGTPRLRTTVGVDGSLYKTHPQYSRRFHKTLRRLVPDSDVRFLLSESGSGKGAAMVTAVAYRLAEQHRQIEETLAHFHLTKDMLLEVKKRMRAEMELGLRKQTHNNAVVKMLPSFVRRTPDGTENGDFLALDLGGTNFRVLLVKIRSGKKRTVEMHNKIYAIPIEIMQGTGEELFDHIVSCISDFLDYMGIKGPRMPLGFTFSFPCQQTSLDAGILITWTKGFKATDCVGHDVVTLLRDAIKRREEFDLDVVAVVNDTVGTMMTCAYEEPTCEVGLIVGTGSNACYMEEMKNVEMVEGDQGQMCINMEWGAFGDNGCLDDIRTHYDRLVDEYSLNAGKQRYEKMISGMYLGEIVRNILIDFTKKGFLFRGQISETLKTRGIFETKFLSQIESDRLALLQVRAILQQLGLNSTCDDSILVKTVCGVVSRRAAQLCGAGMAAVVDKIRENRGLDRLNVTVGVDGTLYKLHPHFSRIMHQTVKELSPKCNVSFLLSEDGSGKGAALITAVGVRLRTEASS

[3] = target: Latent membrane protein 1 (Human herpesvirus 4 (strain B95-8), UniProt P03230); experiment: TES1-eGFP NF-kB reporter inhibition versus Tet-On dsRED, dose response, selectivity assay for LMP1 NF-kB inhibitor project, imaging, HEK293T, dual-color eGFP/dsRED, cherry-picks (AID 588398); type: functional, cell-based
Latent membrane protein 1, sequence (P03230 whole entry): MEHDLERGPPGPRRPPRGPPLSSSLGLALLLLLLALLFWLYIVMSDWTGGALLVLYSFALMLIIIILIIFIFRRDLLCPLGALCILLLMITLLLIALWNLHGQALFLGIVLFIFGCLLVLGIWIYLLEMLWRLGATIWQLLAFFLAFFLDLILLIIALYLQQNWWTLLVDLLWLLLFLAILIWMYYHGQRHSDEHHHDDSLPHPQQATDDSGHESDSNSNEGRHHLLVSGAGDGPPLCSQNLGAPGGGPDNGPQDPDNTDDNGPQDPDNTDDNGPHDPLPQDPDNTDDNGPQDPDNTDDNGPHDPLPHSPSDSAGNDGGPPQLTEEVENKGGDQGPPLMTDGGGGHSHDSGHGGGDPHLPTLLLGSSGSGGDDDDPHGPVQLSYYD

HEK293 [4] = experiment: cytotoxicity in HEK293T NF-kB-Luc cells, SAR follow-up, cytotoxicity control for NF-kB activator project, cell-based, resazurin fluorescence (AID 493251); type: functional; conditions: Homo sapiens
HEK293 [5] = experiment: SAR Analysis of small molecule inhibitors of both B-cell and T-cell specific antigen receptor-induced NF-kB activation in a HEK-293T cell line using a luminescence assay. [Related pubchem assays (depositor defined):AID435003, AID435022, AID465, AID489019, AID489029]; type: functional, cell-based; conditions: Homo sapiens
Jurkat = experiment: SAR Analysis of small molecule inhibitors of both B-cell and T-cell specific antigen receptor-induced NF-kB activation in a Jurkat cell line using a luminescence assay. [Related pubchem assays (depositor defined):AID435003, AID435022, AID465, AID489029]; type: functional, cell-based; conditions: Homo sapiens
[6] = target: T2, Sentrin-specific protease 6 (Homo sapiens, UniProt Q9GZR1); experiment: SENP6 protease inhibitors, SAR follow-up, biochemical, luminescence, set 2 (AID 588598); type: functional
T2 sequence (Q9GZR1 whole entry): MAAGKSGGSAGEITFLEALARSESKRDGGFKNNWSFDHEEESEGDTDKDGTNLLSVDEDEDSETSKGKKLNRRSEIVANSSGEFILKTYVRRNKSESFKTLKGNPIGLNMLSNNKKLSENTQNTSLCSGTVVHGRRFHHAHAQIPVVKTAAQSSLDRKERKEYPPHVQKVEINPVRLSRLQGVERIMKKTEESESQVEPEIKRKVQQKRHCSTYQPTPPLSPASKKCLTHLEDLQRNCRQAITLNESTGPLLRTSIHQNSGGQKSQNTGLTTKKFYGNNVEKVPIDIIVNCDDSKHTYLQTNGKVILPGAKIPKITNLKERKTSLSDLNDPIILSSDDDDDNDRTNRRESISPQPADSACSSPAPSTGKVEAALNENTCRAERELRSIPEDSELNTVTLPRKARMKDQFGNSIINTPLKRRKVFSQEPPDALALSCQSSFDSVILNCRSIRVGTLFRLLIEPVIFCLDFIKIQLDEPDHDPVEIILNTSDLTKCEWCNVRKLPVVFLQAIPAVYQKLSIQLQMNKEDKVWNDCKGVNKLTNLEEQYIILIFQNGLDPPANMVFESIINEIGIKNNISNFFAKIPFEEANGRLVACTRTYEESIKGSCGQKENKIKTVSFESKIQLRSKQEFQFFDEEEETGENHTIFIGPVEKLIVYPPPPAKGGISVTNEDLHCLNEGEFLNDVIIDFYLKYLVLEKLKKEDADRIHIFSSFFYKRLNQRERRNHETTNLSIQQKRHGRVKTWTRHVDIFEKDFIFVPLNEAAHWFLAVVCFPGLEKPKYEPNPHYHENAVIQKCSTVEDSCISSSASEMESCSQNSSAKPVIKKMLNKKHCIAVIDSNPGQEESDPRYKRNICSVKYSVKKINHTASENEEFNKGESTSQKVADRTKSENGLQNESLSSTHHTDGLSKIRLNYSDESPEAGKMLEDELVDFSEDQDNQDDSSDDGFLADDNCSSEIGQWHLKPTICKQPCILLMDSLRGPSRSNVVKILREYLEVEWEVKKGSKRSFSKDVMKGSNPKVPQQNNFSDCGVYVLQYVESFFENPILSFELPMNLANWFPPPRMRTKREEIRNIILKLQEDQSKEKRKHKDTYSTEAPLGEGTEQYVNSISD

Caspase-3 = target: T3, Caspase-3 (Homo sapiens, UniProt P42574); experiment: caspase-3 inhibitors as off-family protease, SAR follow-up, selectivity assay for SENP protease inhibitor project, biochemical, luminescence, set 2 (AID 588599); type: functional
T3 sequence (P42574 whole entry): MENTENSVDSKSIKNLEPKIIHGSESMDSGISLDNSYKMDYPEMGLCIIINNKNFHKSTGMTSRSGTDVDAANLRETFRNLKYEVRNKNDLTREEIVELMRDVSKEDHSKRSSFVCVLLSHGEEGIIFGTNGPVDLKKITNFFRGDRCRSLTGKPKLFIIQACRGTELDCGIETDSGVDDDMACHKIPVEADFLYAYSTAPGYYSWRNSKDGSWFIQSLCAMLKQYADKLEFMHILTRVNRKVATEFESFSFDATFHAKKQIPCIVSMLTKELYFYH

[7] = target: T4, Sentrin-specific protease 8 (Homo sapiens, UniProt Q96LD8); experiment: SENP8 protease inhibitors, SAR follow-up, biochemical, luminescence, set 2 (AID 588601); type: functional
T4 sequence (Q96LD8 whole entry): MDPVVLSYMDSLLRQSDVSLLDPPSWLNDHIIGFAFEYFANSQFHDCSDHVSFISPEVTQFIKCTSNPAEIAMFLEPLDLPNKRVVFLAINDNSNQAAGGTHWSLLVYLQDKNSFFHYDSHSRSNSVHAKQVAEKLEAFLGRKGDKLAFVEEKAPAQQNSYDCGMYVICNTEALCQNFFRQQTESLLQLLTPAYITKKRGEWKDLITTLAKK

[8] = target: T5, Sentrin-specific protease 7 (Homo sapiens, UniProt Q9BQF6); experiment: SENP7 protease inhibitors, SAR follow-up, biochemical, luminescence, set 2 (AID 588600); type: functional
T5 sequence (Q9BQF6 whole entry): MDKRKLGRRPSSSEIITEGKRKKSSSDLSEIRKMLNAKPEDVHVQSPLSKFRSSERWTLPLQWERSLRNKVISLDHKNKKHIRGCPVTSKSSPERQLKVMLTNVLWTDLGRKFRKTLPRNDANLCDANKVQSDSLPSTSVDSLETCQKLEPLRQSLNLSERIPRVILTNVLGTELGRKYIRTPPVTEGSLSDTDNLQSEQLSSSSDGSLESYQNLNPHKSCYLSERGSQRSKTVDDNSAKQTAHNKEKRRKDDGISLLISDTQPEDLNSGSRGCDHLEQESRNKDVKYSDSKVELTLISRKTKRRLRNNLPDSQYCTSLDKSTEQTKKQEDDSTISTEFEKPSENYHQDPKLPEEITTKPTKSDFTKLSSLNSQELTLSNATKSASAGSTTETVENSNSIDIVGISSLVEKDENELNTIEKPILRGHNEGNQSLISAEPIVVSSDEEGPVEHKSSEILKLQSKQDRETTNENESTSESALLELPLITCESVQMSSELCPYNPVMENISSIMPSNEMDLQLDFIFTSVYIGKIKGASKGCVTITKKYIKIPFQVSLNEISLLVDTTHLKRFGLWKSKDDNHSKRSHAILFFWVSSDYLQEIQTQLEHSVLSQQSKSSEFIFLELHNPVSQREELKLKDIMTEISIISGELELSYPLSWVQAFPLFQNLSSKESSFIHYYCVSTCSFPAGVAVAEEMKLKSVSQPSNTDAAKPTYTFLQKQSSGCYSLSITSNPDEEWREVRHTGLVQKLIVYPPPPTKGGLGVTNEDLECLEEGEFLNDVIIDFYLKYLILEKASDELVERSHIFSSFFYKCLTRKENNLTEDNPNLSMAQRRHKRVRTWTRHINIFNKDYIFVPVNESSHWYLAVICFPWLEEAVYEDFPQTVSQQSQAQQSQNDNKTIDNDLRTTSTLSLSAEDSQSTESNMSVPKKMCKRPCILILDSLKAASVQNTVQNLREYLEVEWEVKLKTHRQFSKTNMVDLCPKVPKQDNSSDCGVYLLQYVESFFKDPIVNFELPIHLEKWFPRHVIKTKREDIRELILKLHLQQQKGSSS

[9] = target: Melanin-concentrating hormone receptor 1 (Homo sapiens, UniProt Q99705); experiment: Late-stage fluorescence-based counterscreen for antagonists of the G-protein coupled receptor 7 (GPR7): cell-based dose response assay to identify antagonists of the melanin-concentrating hormone receptor 1 (MCHR1) Set 5.; type: functional
[10] = target: Calcium/calmodulin-dependent protein kinase type II subunit alpha (Homo sapiens, UniProt Q9UQM7); experiment: Navigating the Kinome. Panel member name: CAMK2A; type: functional
Calcium/calmodulin-dependent protein kinase type II subunit alpha, sequence (Q9UQM7 whole entry): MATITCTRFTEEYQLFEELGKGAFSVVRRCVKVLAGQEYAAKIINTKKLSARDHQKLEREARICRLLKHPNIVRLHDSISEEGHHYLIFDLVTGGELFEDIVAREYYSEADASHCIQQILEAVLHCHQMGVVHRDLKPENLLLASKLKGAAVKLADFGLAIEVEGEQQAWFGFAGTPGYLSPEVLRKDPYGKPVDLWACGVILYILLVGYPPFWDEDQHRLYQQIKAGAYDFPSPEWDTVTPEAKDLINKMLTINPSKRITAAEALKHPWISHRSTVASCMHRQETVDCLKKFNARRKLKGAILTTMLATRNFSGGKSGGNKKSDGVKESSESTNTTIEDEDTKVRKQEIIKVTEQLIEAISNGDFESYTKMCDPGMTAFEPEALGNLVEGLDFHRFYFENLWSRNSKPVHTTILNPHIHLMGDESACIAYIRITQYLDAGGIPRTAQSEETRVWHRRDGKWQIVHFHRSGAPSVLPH

[11] = target: Proto-oncogene tyrosine-protein kinase receptor Ret (Homo sapiens, UniProt P07949); type: functional;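 also: measured within a kinome-wide profiling panel, RET as the panel member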
[12] = target: Platelet-derived growth factor receptor alpha (Homo sapiens, UniProt P16234); experiment: Navigating the Kinome. Panel member name: PDGFRA; type: functional
Platelet-derived growth factor receptor alpha, sequence (P16234 whole entry): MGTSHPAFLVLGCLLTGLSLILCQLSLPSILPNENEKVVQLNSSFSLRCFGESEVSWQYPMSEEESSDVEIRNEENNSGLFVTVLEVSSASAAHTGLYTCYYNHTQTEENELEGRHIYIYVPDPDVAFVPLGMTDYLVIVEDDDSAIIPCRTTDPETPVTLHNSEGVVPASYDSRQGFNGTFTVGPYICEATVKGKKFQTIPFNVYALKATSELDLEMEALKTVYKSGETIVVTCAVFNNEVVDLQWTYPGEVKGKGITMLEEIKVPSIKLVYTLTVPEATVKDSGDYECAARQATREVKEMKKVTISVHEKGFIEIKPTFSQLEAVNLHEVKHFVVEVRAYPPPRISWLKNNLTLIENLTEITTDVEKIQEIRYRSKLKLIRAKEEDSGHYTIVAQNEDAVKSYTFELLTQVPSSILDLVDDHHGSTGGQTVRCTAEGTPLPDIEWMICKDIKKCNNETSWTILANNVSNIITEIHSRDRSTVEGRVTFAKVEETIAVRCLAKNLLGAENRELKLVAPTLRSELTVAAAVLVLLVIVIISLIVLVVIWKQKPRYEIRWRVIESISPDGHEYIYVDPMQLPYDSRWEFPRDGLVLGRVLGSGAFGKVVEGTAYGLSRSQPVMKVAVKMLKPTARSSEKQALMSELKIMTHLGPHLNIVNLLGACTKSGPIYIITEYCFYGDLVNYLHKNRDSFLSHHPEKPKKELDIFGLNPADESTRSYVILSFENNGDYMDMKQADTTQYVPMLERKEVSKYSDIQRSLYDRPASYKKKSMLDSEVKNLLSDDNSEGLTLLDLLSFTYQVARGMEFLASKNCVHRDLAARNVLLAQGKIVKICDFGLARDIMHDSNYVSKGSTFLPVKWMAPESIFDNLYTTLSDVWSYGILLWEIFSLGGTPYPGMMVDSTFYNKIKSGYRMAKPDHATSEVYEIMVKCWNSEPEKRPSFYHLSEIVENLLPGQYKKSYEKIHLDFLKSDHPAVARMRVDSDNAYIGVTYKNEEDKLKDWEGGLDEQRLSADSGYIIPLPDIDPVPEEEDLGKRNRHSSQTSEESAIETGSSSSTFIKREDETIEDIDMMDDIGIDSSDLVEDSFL

[13] = target: Serine/threonine-protein kinase D3 (Homo sapiens, UniProt O94806); type: functional;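 also: determined within a kinase panel screen, with PRKCN as the panel member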
[14] = target: Mitogen-activated protein kinase 9 (Homo sapiens, UniProt P45984); type: functional;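 also: value from a kinome panel profiling assay, MAPK9 panel entry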
Mitogen-activated protein kinase 9, sequence (P45984 whole entry): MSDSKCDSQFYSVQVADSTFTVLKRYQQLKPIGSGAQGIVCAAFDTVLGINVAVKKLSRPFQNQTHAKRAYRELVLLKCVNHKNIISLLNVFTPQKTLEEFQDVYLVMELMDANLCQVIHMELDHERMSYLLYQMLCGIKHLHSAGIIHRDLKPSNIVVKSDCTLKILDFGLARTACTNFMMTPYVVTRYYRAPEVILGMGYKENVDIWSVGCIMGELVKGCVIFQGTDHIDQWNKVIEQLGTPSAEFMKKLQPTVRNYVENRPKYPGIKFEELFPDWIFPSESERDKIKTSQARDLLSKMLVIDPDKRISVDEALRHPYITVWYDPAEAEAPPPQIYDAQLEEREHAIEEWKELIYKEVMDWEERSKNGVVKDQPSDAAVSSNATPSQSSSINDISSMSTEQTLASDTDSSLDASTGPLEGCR

[15] = target: Serine/threonine-protein kinase pim-1 (Homo sapiens, UniProt P11309); type: functional
[16] = target: Calcium/calmodulin-dependent protein kinase type II subunit beta (Homo sapiens, UniProt Q13554); type: functional
[17] = target: MAP kinase-activated protein kinase 3 (Homo sapiens, UniProt Q16644); type: functional;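 also: value comes from a kinome-wide profiling panel in which MAPKAPK3 is one of the panel members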
MAP kinase-activated protein kinase 3, sequence (Q16644 whole entry): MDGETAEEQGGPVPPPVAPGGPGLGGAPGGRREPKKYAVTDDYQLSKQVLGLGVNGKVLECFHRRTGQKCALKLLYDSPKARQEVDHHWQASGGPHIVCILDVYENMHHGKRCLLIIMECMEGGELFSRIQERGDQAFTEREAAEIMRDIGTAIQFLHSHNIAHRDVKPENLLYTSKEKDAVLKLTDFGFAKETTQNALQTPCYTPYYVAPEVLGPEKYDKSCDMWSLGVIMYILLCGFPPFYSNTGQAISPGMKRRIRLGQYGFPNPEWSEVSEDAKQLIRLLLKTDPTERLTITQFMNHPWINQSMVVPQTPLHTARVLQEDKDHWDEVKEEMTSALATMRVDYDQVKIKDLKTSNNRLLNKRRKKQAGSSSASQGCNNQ

[18] = target: Protein kinase C zeta type (Homo sapiens, UniProt Q05513); type: functional;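 also: measured as one member of a broad kinase profiling panel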
[19] = target: Protein kinase C gamma type (Homo sapiens, UniProt P05129); type: functional
[20] = target: G protein-coupled receptor kinase 5 (Homo sapiens, UniProt P34947); experiment: Navigating the Kinome. Panel member name: GPRK5; type: functional

Wee1-like protein kinase, sequence (P30291 whole entry): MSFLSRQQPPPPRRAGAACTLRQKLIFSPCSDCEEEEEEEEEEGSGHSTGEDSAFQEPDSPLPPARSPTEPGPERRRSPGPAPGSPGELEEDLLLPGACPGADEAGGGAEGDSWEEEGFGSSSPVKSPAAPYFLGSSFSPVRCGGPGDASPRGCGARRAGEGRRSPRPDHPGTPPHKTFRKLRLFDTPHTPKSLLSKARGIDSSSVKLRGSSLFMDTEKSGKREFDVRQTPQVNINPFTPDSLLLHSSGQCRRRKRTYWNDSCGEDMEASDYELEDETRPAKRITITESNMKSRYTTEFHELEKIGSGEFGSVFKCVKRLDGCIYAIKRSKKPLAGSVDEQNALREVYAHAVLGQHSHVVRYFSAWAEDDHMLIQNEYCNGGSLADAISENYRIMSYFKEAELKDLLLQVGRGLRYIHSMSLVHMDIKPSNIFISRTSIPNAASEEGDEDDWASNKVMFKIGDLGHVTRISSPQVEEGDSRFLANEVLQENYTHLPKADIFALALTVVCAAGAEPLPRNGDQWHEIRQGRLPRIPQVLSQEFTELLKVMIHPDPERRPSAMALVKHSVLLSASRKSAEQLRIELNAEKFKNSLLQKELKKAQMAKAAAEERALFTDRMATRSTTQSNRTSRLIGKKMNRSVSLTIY

For CCNc1nc(C)c(-c2ccnc(Nc3ccc(N4CCNCC4)cc3)n2)s1, the Ki (Wee1-like protein kinase) was 0.0794 µM (active) and the Ki [1] was 0.2 µM (active).

With CCOc1ccc(NC(=O)CSc2nc(O)c(C)c(=O)n2-c2ccc(F)cc2)cc1 the IC50 [2] was > 25 µM (active).

In the case of COc1ccccc1NC(=S)NN=C(C)c1ccccn1, the IC50 (Nonstructural protein 1) is reported as 25.8 µM (active), the EC50 (Hexokinase HKDC1) is reported as 3.03 µM (active) and the EC50 (Hexokinase-1) is reported as > 80 µM (inactive). The AC50 [3] was 0.638 µM (active).

For COc1cc(N)c2ncccc2c1, the IC50 (HEK293 [4]) was 43.1 µM (inactive), the IC50 (HEK293 [5]) was > 79 µM (inactive) and the IC50 (Jurkat) was 76.2 µM (inactive).

In the case of Cc1[nH]c2ccccc2c1/C=N/NC(=O)c1cc2ccccc2cc1O, the IC50 [6] is reported as 83.4 µM (active), the IC50 (Caspase-3) is reported as > 99 µM (inactive) and the IC50 [7] is reported as 79.4 µM (active). The IC50 [8] was 95.7 µM (active).

For COc1ccc(Oc2c(Cl)cnn(Cc3cccc4ccccc34)c2=O)cc1OC, the IC50 [9] was 1.44 µM (active).

With CCN(CCN(C)C)C(=O)c1cccc(-n2nc(C(C)(C)C)cc2NC(=O)Nc2cccc3ccccc23)c1 the Ki [10] was > 7.94 µM (inactive), the Ki [11] was 1.58 µM (active) and the Ki [12] was 1.26 µM (active). For the same molecule, the Ki [13] was 3.16 µM (active) and the Ki [14] was 3.16 µM (active).

For CNCCONC(=O)c1ccc(F)c(F)c1Nc1ccc(I)cc1F, the Ki [15] was 2 µM (active) and the Ki [16] was 7.94 µM (active).

With O=c1ncn2nc(Sc3ccc(F)cc3F)ccc2c1-c1c(Cl)cccc1Cl [NEFLAMAPIMOD] the Ki [17] was > 10 µM (inactive), the Ki [18] was > 7.94 µM (inactive) and the Ki [19] was > 7.94 µM (inactive). For the same molecule, the Ki [20] was > 3.98 µM (inactive).
